Laboratory results taken from patent publication US9328085B2, “Heterocyclic compounds and expansion agents for hematopoietic stem cells” (NISSAN CHEMICAL INDUSTRIES, LTD., priority 2009, dated 2016).

How the values were obtained:
[1] = tested on: CD34^+ cells; experiment: Expansion of CD34+ cells using human cord blood-derived CD34+ cells (Assay Example 1); format: cell-based; settings: 100 ng/mL SCF, 7 days, based on the number of CD34^+ cells in the absence of compound
Method: (§1) Human cord blood-derived CD34^+ cells were purchased from Lonza and plated on a 24-well plate (Corning) (10000 cells/1 mL/well). As the culture medium, StemSpan SFEM (StemCell Technologies) containing 100 ng/mL SCF (Wako Pure Chemical Industries) was used, and one of Compounds No. 1 to 72 dissolved in dimethyl sulfoxide was added in an amount of 0.1% (v/v) to a final concentration of 1 or 3 μg/mL. As a positive control, TPO (PeproTech) was used at a final concentration of 10 ng/mL.
(§2) After the cells were incubated in liquid culture at 37° C. for 7 days in a CO2 incubator (5% CO2), the number of viable cells was counted by trypan blue assay. The number of CD34^+CD38^− cells was calculated as follows. After the incubation, the cells in the liquid culture was stained with a CD34 antibody (APC, Becton, Dickinson and Company) and a CD38 antibody (PE, Becton, Dickinson and Company), then washed with PBS(−) containing 2% (v/v) FBS and stained with propidium iodide (Sigma-Aldrich Japan) added to a final concentration of 5 μg/mL. The stained cells were analyzed with a BD FACSCANTO™ II flow cytometer (Becton, Dickinson and Company) to determined the proportions of CD34^+ cells and CD34^+CD38^− cells, which was multiplied by the number of viable cells to calculate the numbers of CD34^+ cells and CD34^+CD38^− cells.
(§3) The expansion efficiencies in the presence of 1 or 3 μg/mL of compounds based on the number of CD34^+ cells in the absence of them are shown in Tables 3-1 and 3-2 on a scale of A for expansion efficiencies of 6 or greater, B for expansion efficiencies of at least 4 and less than 6, and C for expansion efficiencies of at least 2 and less than 4. The expansion efficiencies in the presence of 1 or 3 μg/mL of compounds based on the number of CD34^+CD38^− cells in the absence of them are shown in Tables 4-1 and 4-2 on a scale of A for expansion efficiencies of 10 or greater, B for expansion efficiencies of at least 5 and less than 10, and C for expansion efficiencies of at least 3 and less than 5. Further, in Table 3, the compounds with an expansion efficiency twice or more greater than that of TPO are marked with O.

[2] = tested on: CD34^+CD38^− cells; experiment: Expansion of CD34+CD38- cells using human cord blood-derived CD34+ cells (Assay Example 1); format: cell-based; settings: for Comparison with TPO: CD34^+CD38^− cells; for Expansion efficiency (CD34^+CD38^− cells): 100 ng/mL SCF, 7 days, based on the number of CD34^+CD38^− cells in the absence of compound
Method: as §1, §2, §3

[3] = 3 μg/mL compound vs TPO 10 ng/mL

Row | SMILES | Expansion efficiency (CD34^+ cells) ([1]; 3 μg/mL compound) | Comparison with TPO [2, 3] | Expansion efficiency (CD34^+CD38^− cells) ([2]; 3 μg/mL compound) | Expansion efficiency (CD34^+ cells) ([1]; 1 μg/mL compound) | Expansion efficiency (CD34^+CD38^− cells) ([2]; 1 μg/mL compound) | Comparison with TPO ([2]; 1 μg/mL compound vs TPO 10 ng/mL)
1 | CC(=NNC(=O)c1ccc(C(=O)NCc2ccc(C(=O)NCCN3CCNCC3)cc2)s1)c1csc(-c2ccc(C(C)(C)C)cc2)c1O [compound 29] | A (A for expansion efficiencies of 6 or greater) | ∘ | A (A for expansion efficiencies of 10 or greater) |  |  | 
2 | CC(=NNC(=O)c1ccc(C(=O)NCc2ccc(C(=O)NCCN3CCNCC3)cc2)s1)c1csc(-c2ccc(Br)cc2)c1O [compound 30] | A (A for expansion efficiencies of 6 or greater) | ∘ | A (A for expansion efficiencies of 10 or greater) |  |  | 
3 | COCCOCCNC(=O)c1ccc(CNC(=O)c2ccc(C(=O)NN=C(C)c3csc(-c4ccc(Cl)c(Cl)c4)c3O)s2)cc1 [compound 31] | C (C for expansion efficiencies of at least 2 and less than 4) |  | A (A for expansion efficiencies of 10 or greater) |  |  | 
4 | COCCOCCNC(=O)c1ccc(CNC(=O)c2ccc(C(=O)NN=C(C)c3csc(-c4ccc(C(C)(C)C)cc4)c3O)s2)cc1 [compound 32] | A (A for expansion efficiencies of 6 or greater) | ∘ | A (A for expansion efficiencies of 10 or greater) |  |  | 
5 | COCCOCCNC(=O)c1ccc(CNC(=O)c2ccc(C(=O)NN=C(C)c3csc(-c4ccc(Br)cc4)c3O)s2)cc1 [compound 33] | A (A for expansion efficiencies of 6 or greater) | ∘ | A (A for expansion efficiencies of 10 or greater) |  |  | 
6 | CCCCOCCOCCNC(=O)c1ccc(CNC(=O)c2ccc(C(=O)NN=C(C)c3csc(-c4ccc(Cl)c(Cl)c4)c3O)s2)cc1 [compound 34] | C (C for expansion efficiencies of at least 2 and less than 4) |  | B (B for expansion efficiencies of at least 5 and less than 10) |  |  | 
7 | CCCCOCCOCCNC(=O)c1ccc(CNC(=O)c2ccc(C(=O)NN=C(C)c3csc(-c4ccc(C(C)(C)C)cc4)c3O)s2)cc1 [compound 35] | C (C for expansion efficiencies of at least 2 and less than 4) |  | B (B for expansion efficiencies of at least 5 and less than 10) |  |  | 
8 | CCCCOCCOCCNC(=O)c1ccc(CNC(=O)c2ccc(C(=O)NN=C(C)c3csc(-c4ccc(Br)cc4)c3O)s2)cc1 [compound 36] | C (C for expansion efficiencies of at least 2 and less than 4) |  | B (B for expansion efficiencies of at least 5 and less than 10) |  |  | 
9 | CCCCCCOCCOCCNC(=O)c1ccc(CNC(=O)c2ccc(C(=O)NN=C(C)c3csc(-c4ccc(Cl)c(Cl)c4)c3O)s2)cc1 [compound 37] | C (C for expansion efficiencies of at least 2 and less than 4) |  | A (A for expansion efficiencies of 10 or greater) |  |  | 
10 | CCCCCCOCCOCCNC(=O)c1ccc(CNC(=O)c2ccc(C(=O)NN=C(C)c3csc(-c4ccc(C(C)(C)C)cc4)c3O)s2)cc1 [compound 38] | C (C for expansion efficiencies of at least 2 and less than 4) |  | A (A for expansion efficiencies of 10 or greater) |  |  | 
11 | CC(=NNC(=O)c1ccc(C(=O)NCc2ccc(C(=O)NCCOCCO)cc2)cc1)c1csc(-c2ccc(C(C)(C)C)cc2)c1O [compound 44] | C (C for expansion efficiencies of at least 2 and less than 4) |  | A (A for expansion efficiencies of 10 or greater) |  |  | 
12 | CC(=O)NCc1ccc(CNC(=O)c2ccc(C(=O)NN=C(C)c3csc(-c4ccc(Cl)c(Cl)c4)c3O)s2)cc1 [compound 52] |  |  |  | A (A for expansion efficiencies of 6 or greater) | A (A for expansion efficiencies of 10 or greater) | 
13 | CC(=O)NCc1ccc(CNC(=O)c2ccc(C(=O)NN=C(C)c3csc(-c4ccc(C(C)(C)C)cc4)c3O)s2)cc1 [compound 53] |  |  |  | C (C for expansion efficiencies of at least 2 and less than 4) | B (B for expansion efficiencies of at least 5 and less than 10) | 
14 | CC(=O)NCc1ccc(CNC(=O)c2ccc(C(=O)NN=C(C)c3csc(-c4ccc(Br)cc4)c3O)s2)cc1 [compound 54] |  |  |  | A (A for expansion efficiencies of 6 or greater) | A (A for expansion efficiencies of 10 or greater) | 
15 | CC(=O)NCc1ccc(CNC(=O)c2ccc(C(=O)NN=C(C)c3csc(-c4ccc(C(F)(F)F)cc4)c3O)s2)cc1 [compound 55] |  |  |  | A (A for expansion efficiencies of 6 or greater) | A (A for expansion efficiencies of 10 or greater) | 
16 | CC(=O)NCc1ccc(CNC(=O)c2ccc(C(=O)NN=C(C)c3csc(-c4ccc(Cl)cc4)c3O)s2)cc1 [compound 56] |  |  |  | A (A for expansion efficiencies of 6 or greater) | A (A for expansion efficiencies of 10 or greater) | 
17 | CC(=O)NCc1ccc(CNC(=O)c2ccc(C(=O)NN=C(C)c3csc(-c4ccc(OC(F)(F)F)cc4)c3O)s2)cc1 [compound 57] | B (B for expansion efficiencies of at least 4 and less than 6) |  | A (A for expansion efficiencies of 10 or greater) |  |  | 
18 | COc1ccc(-c2scc(C(C)=NNC(=O)c3ccc(C(=O)NCc4ccc(CNC(C)=O)cc4)s3)c2O)cc1 [compound 58] |  |  |  | B (B for expansion efficiencies of at least 4 and less than 6) | A (A for expansion efficiencies of 10 or greater) | 
19 | CC(=NNC(=O)c1ccc(C(=O)NCc2ccc(C(=O)NCCOCCO)cc2)s1)c1csc(-c2ccc(Cl)c(Cl)c2)c1O [compound 59] | B (B for expansion efficiencies of at least 4 and less than 6) | ∘ | A (A for expansion efficiencies of 10 or greater) |  |  | 
20 | CC(=NNC(=O)c1ccc(C(=O)NCc2ccc(C(=O)NCCOCCO)cc2)s1)c1csc(-c2ccc(C(F)(F)F)cc2)c1O [compound 62] | A (A for expansion efficiencies of 6 or greater) | ∘ | A (A for expansion efficiencies of 10 or greater) |  |  | 
21 | CC(=NNC(=O)c1ccc(C(=O)NCc2ccc(C(=O)NCCOCCO)cc2)s1)c1csc(-c2ccc(Cl)cc2)c1O [compound 63] | A (A for expansion efficiencies of 6 or greater) | ∘ | A (A for expansion efficiencies of 10 or greater) |  |  | 
22 | CC(=NNC(=O)c1ccc(C(=O)NCc2ccc(C(=O)NCCOCCO)cc2)s1)c1csc(-c2ccc(OC(F)(F)F)cc2)c1O [compound 64] |  |  |  | A (A for expansion efficiencies of 6 or greater) | A (A for expansion efficiencies of 10 or greater) | ∘
23 | COc1ccc(-c2scc(C(C)=NNC(=O)c3ccc(C(=O)NCc4ccc(C(=O)NCCOCCO)cc4)s3)c2O)cc1 [compound 65] | C (C for expansion efficiencies of at least 2 and less than 4) |  | B (B for expansion efficiencies of at least 5 and less than 10) |  |  | 
